In patent US20220251105A1, “METHODS OF TREATING A MK2-MEDIATED DISORDER” (Celgene CAR LLC, priority 2019, published 2022):
Like-named read-outs stand apart in the source and are kept apart here.

Columns and labels:
Format in all cases: in vivo
[1] = steady-state plasma exposure in mouse disease models; settings: 3 mg/kg
[2] = single intravenous dose pharmacokinetics in cynomolgus monkeys; settings: cynomolgus monkey, plasma; for Vd: read-out: Vdss
Description: (§1) In vitro and in vivo studies were conducted to characterize the absorption, PK, distribution, and metabolism of Compound 1. […] Additionally, plasma samples from single dose PK studies in mice and monkeys were evaluated for circulating metabolites.

[3] = single oral dose pharmacokinetics in Sprague Dawley rats; settings: rat
Description: as §1

[4] = toxicokinetics, exploratory 14-day mouse study; settings: both sexes, CD-1, mouse, plasma, po, mice, read-out: Mean Day 14 AUC0-last
Description: A single oral dose study with a 14-day repeat-dose phase was conducted in male and female mice. 250 mg/kg was selected as the highest dose for the repeat dose portion of the study.

Monkey/Cynomolgus = test: 7-day repeat dose toxicity study in cynomolgus monkeys; settings: monkeys, 25, 75, 250 mg/kg/day
Description: (§2) In cynomolgus monkeys, a 7-day repeat dose toxicity study was conducted with doses up to 250 mg/kg/day. […] To aid in dose selection for a subsequent pivotal study, an additional study was conducted to determine the maximum feasible dose under optimal feeding conditions in cynomolgus monkeys. […] Dosing monkeys in the fasted state prior to dosing yielded more consistently higher exposures. Therefore, a dose of 375 mg/kg in 0.5% methyl cellulose (400 cps) and 0.1% Tween 80 administered to fasted monkeys was selected for the 14-day repeat-dose phase of the study, and was considered the maximum feasible dose.

[5] = toxicokinetics, single dose and 14-day monkey study; settings: cynomolgus monkey, plasma, po, monkeys
Description: as §2

[6] = toxicokinetics, 28-day mouse study; settings: Crl:CD1 (ICR), mouse, plasma, po, mice;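 as to AUC: AUC to the last measurable time point (AUClast)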
From the text: There were no notable sex-related differences in Compound 1 exposure.
Additionally, toxicokinetic animals received the vehicle or compound in the same manner and dose levels as the main study groups.

[7] = cynomolgus, monkey, female, single IV 5 mg/kg
[8] = cynomolgus, monkey, male, single IV 5 mg/kg
[9] = Sprague Dawley, plasma, female, single oral 30 mg/kg
[10] = Sprague Dawley, plasma, male, single oral 30 mg/kg
[11] = female, 15 mg/kg/day, Study Day 1, female, 15 mg/kg/day
[12] = female, 15 mg/kg/day, Study Day 21, female, 15 mg/kg/day
[13] = female, 100 mg/kg/day, Study Day 1, female, 100 mg/kg/day
[14] = female, 100 mg/kg/day, Study Day 21, female, 100 mg/kg/day
[15] = female, 750 mg/kg/day, Study Day 1, female, 750 mg/kg/day
[16] = female, 750 mg/kg/day, Study Day 21, female, 750 mg/kg/day
[17] = male, 15 mg/kg/day, Study Day 1, male, 15 mg/kg/day
[18] = male, 15 mg/kg/day, Study Day 21, male, 15 mg/kg/day
[19] = male, 100 mg/kg/day, Study Day 1, male, 100 mg/kg/day

## CCOCc1cnc(Cl)nc1Oc1ccc2c(ccc3sc4c(c32)NC[C@@H](C)NC4=O)n1 [Compound 1]
[1]; BALB/c, mouse, CAIA in BALB/c mice
  AUC: 626 ng·h/mL
[1]; BALB/c, mouse, imiquimod ear swelling in BALB/c mice
  AUC: 917 ng·h/mL
[1]; C57B1/6, mouse, mannan PsA in C57B1/6 mice
  AUC: 467 ng·h/mL
[2]; both sexes, iv, 5 mg/kg, monkeys, read-out: terminal half-life
  half-life: ≤ 60 min
[2]; [7]
  AUC: 2200 ng·h/mL
  AUC(0-inf): 2210 ng·h/mL
  clearance: 38.3 mL/min/kg
  Vd: 1.93 L/kg
[2]; cynomolgus, monkey, female, single IV 5 mg/kg, read-out: t1/2,z (converted)
  half-life: 58.8 min
[2]; [8]
  AUC: 1920 ng·h/mL
  AUC(0-inf): 1920 ng·h/mL
  clearance: 43.5 mL/min/kg
  Vd: 1.81 L/kg
[2]; cynomolgus, monkey, male, single IV 5 mg/kg, read-out: t1/2,z (converted)
  half-life: 57 min
[3]; [9]
  AUC: 5940 ng·h/mL
  AUC(0-inf): 6610 ng·h/mL
  Cmax: 4960 ng/mL
[3]; Sprague Dawley, plasma, female, single oral 30 mg/kg, median, read-out: tmax
  Tmax: 30 min
[3]; [10]
  AUC: 1190 ng·h/mL
  AUC(0-inf): 1290 ng·h/mL
  Cmax: 1180 ng/mL
[3]; Sprague Dawley, plasma, male, single oral 30 mg/kg, median, read-out: tmax
  Tmax: 15 min
[3]; both sexes, Sprague Dawley, plasma, 30 mg/kg, rats, oral dosing, read-out: time to maximum plasma concentration (tmax)
  Tmax: 15 to 60 min
[3]; both sexes, Sprague Dawley, plasma, po, rats, doses in the range 15 to 375 mg/kg
  bioavailability: 8 to 28%
[3]; female, single oral 30 mg/kg
  F: 28%
[3]; male, single oral 30 mg/kg
  F: 11%
[4]; 15 mg/kg/day
  AUC(0-t): 4820 ng·h/mL
[4]; 75 mg/kg/day
  AUC(0-t): 16600 ng·h/mL
[4]; 250 mg/kg/day
  AUC(0-t): 35100 ng·h/mL
Monkey/Cynomolgus
  Findings, 7 days: no compound-related findings in any endpoints
[5]; 375 mg/kg, 375 mg/kg, fasted, read-out: Mean Day 1 AUC0-t
  AUC(0-t): 11500 ng·h/mL
[5]; 375 mg/kg, 375 mg/kg, non-fasted, read-out: Mean Day 1 AUC0-t
  AUC(0-t): 4060 ng·h/mL
[5]; 375 mg/kg/day, fasted, 375 mg/kg/day, read-out: Mean Day 14 AUC0-t
  AUC(0-t): 5510 ng·h/mL
[5]; 500 mg/kg, 500 mg/kg, fasted, read-out: Mean Day 1 AUC0-t
  AUC(0-t): 14300 ng·h/mL
[5]; 500 mg/kg, 500 mg/kg, non-fasted, read-out: Mean Day 1 AUC0-t
  AUC(0-t): 11400 ng·h/mL
[6]; [11]
  AUC: 5360 ng·h/mL
  Cmax: 2980 ng/mL
[6]; [12]
  AUC: 5980 ng·h/mL
  Cmax: 2970 ng/mL
[6]; [13]
  AUC: 40100 ng·h/mL
  Cmax: 14500 ng/mL
[6]; [14]
  AUC: 32800 ng·h/mL
  Cmax: 12300 ng/mL
[6]; [15]
  AUC: 198000 ng·h/mL
  Cmax: 50300 ng/mL
[6]; [16]
  AUC: 135000 ng·h/mL
  Cmax: 23200 ng/mL
[6]; [17]
  AUC: 4410 ng·h/mL
  Cmax: 2930 ng/mL
[6]; [18]
  AUC: 4460 ng·h/mL
  Cmax: 2420 ng/mL
[6]; [19]
  AUC: 29200 ng·h/mL
  Cmax: 13900 ng/mL
